Results as given in patent publication US20230272401A1, “COMPOSITIONS FOR FLCN GENE MODULATION AND METHODS THEREOF” (GENETIC INTELLIGENCE, INC, priority 2020, published 2023).
e = 2'-O-(2-methoxyethyl) (MOE); d = 2'-deoxy (DNA); m = 2'-O-methyl

What follows are substances tested on human FLCN protein (assay: Antisense inhibition of human FLCN in HEK293T cells, IC50 (Western blot)). Details: 0 nM to 100 nM ASO, Lipofectamine, 2-day incubation, FLCN protein by Western blot.
Assay type: cell-based
Source text: The antisense oligonucleotides listed in this example have all nucleosides linked by modified phosphorothioate backbones. Bolded nucleosides presented in Table 17 indicate nucleosides that are modified with a 2′-MOE sugar modification. Underlined nucleosides presented in Table 17 indicate non-modified DNA nucleosides (deoxynucleotides). Nucleosides that are italicized indicate nucleosides with a 2′-OMe sugar modification. GI81, GI84, GI85, GI86, GI88, GI89 and GI90 are gapped sequences comprising a central sequence of deoxynucleotides, which are flanked on both sides by wing sequences consisting of 2′-MOE modified nucleotides, wherein the second nucleotide of the central sequence from the 5′ end of the oligonucleotide contains a 2′-OMe sugar modification.
These antisense oligonucleotides were tested in the human cell line HEK293T. HEK293T cells were seeded at 400,000 cells per well in a 6-well plate. After 1 day, various concentrations of antisense oligonucleotides ranging from 0 nM to 100 nM were transfected into the cells using Lipofectamine. After a 2-day incubation period, the cells were harvested to obtain whole cell lysates. The whole cell lysates were analyzed by Western blot and probed with a FLCN-specific antibody (CST #3697). The intensity of Western blot bands were quantified by FIJI (Image J) and used to quantify the expression levels of FLCN. The relative expression values of FLCN for the different treatment groups were calculated by normalizing with their respective α-Tubulin loading control, and presented as a percentage to that of the untreated control (which in this case comprised cells not transfected with ASOs). The potencies of these antisense oligonucleotides are reported in the form of IC50 values in Table 17.

Substance | IC50 [nM]
GI90: gapped phosphorothioate ASO, 2′-MOE wings, 2′-OMe at second gap nucleotide, CGGGTGCCCTGCAGCAAG, Exon 5, SEQ ID NO 618 (sugars from the 5' end e4 d1 m1 d8 e4, all phosphorothioate, methylation of C not given here) | 35
GI81: gapped phosphorothioate ASO, 2′-MOE wings, 2′-OMe at second gap nucleotide, TGGCTGATATATCCCGGG, Exon 5, SEQ ID NO 21 (sugars from the 5' end e4 d1 m1 d8 e4, all phosphorothioate, methylation of C not given here) | 14
GI88: gapped phosphorothioate ASO, 2′-MOE wings, 2′-OMe at second gap nucleotide, GCCTGGCGGACAATGCTG, Exon 5, SEQ ID NO 616 (sugars from the 5' end e4 d1 m1 d8 e4, all phosphorothioate, methylation of C not given here) | 19
